Five molecules from US20080152719A1, “Multiparticulate Pharmaceutical Form Comprising Pellets With a Matrix Which Influences the Delivery of a Modulatory Substance” (ROEHM GMBH, priority 2005, published 2008) can be followed below.

The data set can be described thus: Effect of modulating substances on active ingredient delivery in vitro. Type of data set: physicochemical. Conditions: for effect of modulating substance on rate of active ingredient delivery: in the multilayer pharmaceutical form; for activity of modulating substance in purified water versus phosphate buffer pH 6,8: in-vitro, purified water vs phosphate buffer pH 6,8 (Pharm. Eur.). From the text: In the human and animal gastrointestinal tract the concentration of ions may vary to a certain extent and thus may influence the activity of the modulating substances. For reproducible in-vivo results substances having a modulating effect, which are not or only a little influenced by varying ionic strength are preferred.

Turning to `CC(=O)[O-].[Na+]` [Na acetate], the “effect of modulating substance on rate of active ingredient delivery” value (“effect of modulating substance” for short) was “increase the rate of active ingredient delivery”. On the same count and under the same terms, in the case of `O=C([O-])CC(O)(CC(=O)[O-])C(=O)[O-].[Na+].[Na+].[Na+]` [Na citrate] it was “decrease the rate of active ingredient delivery”. As to `O=C(O)CC(O)(CC(=O)O)C(=O)O` [citric acid], the “effect of modulating substance” value is on record as “increase the rate of active ingredient delivery” and the “activity of modulating substance in purified water versus phosphate buffer pH 6,8” value is “almost the same activity”. `[Cl-].[Na+]` [sodium chloride]: the “effect of modulating substance” value is reported as “decrease the rate of active ingredient delivery” and the “activity of modulating substance in purified water versus phosphate buffer pH 6,8” value is “almost the same activity”. The corresponding values for `O=C([O-])CCC(=O)[O-].[Na+].[Na+]` [sodium succinate] are “increase the rate of active ingredient delivery” and “almost the same activity”.
